Test results published in paper PMC3775972 (Wound repair and regeneration : official publication of the …, 2013).

Tests used:
hybridoma mouse cells = conditions: nM concentrations; cited from earlier work
[1] = tested on: T-lymphoblastic leukaemia CEM cells; conditions: read-out: IC50, cytotoxicity; cited from earlier work
ICAM-1 mRNA = assay: Real time PCR of wound tissue, ICAM-1; type: in vivo; conditions: d 10 post-wounding, 10 μg/mouse topical daily
TNF-α mRNA = assay: Real time PCR of wound tissue, TNF-α; type: in vivo; conditions: d 10 post-wounding, 10 μg/mouse topical daily
TGF-β mRNA = assay: Real time PCR of wound tissue, TGF-β; type: in vivo; conditions: d 10 post-wounding, 10 μg/mouse topical daily
HOS cancer cell line = conditions: cited from earlier work
macrophage cell culture = assay: LPS-stimulated inflammation in macrophage cell culture; type: cell-based; conditions: preliminary data, not shown
3T3 mouse fibroblasts [2] = assay: Fibroblast viability / cytotoxicity assay; type: cell-based; conditions: for IC50: read-out: Cell cytotoxicity, IC, MTT, 0.3–30 μM for 4 h
[3] = tested on: primary mouse keratinocytes; assay: Primary keratinocyte proliferation assay; type: cell-based; conditions: for Proliferation of primary keratinocytes: versus vehicle (ethanol); for Proliferation of primary keratinocytes, dose dependence: respective doses, Alamar Blue
A549 cancer cell line = conditions: cited from earlier work
3T3 mouse fibroblasts [4] = assay: Scratch wound closure; type: cell-based; conditions: for Scratch wound closure at 5 μM, %: 12 h incubation, mean ± SEM; for Fibroblast migration / scratch wound closure activity (in words): dose dependence at 0.1–10 μM, 12 h
RPMI 8226 cancer cells = conditions: read-out: IC50, cytotoxicity; RPMI 8226 cells; cited from earlier work
[5] = tested on: full thickness dermal wound in C57BL/6J mice; assay: Mouse model of cutaneous wound healing; type: in vivo
HeLa cancer cell line = conditions: cited from earlier work
[6] = Body weight and food intake after wounding; type: in vivo; conditions: 10 μg/mouse topically daily, d 2 post-wounding
healthy rats = conditions: oral administration, associated with activation of Akt; cited from earlier work
phospho-Akt1(Ser473) = assay: Western blot of edge-of-the-wound tissue, Akt phosphorylation; type: in vivo; conditions: 10 μg/mouse topical daily
3T3 mouse fibroblasts [7] = assay: Fibroblast proliferation assay; type: cell-based; conditions: 24 h, BrdU, mean ± SEM
K562 cancer cell line = conditions: cited from earlier work
[8] = Fibroblast viability / cytotoxicity assay; type: cell-based, mouse; conditions: mouse, NIH 3T3 fibroblasts (ATCC CCL-92)
human cancer cell lines = conditions: below 50 μM; cited from earlier work
3T3 mouse fibroblasts [9] = conditions: PDGF 2 nM, reference treatment; cited from earlier work

CC(C)[C@@H](C)[C@@H](O)[C@H](O)[C@@H](C)[C@H]1CC[C@H]2[C@@H]3COC(=O)[C@H]4C[C@H](O)[C@H](O)C[C@]4(C)[C@H]3CC[C@]12C [24-epibrassinolide]
Proportions of viable hybridoma mouse cells (hybridoma mouse cells): increased

CC[C@@H](C(C)C)[C@@H](O)[C@H](O)[C@@H](C)[C@H]1CC[C@H]2[C@@H]3CC(=O)[C@H]4C[C@H](O)[C@H](O)C[C@]4(C)[C@H]3CC[C@]12C [(22R, 23R)-homocastasterone, reference compound]
IC50 [1]: 13 µM

CCNC(=O)[C@H]1O[C@@H](n2cnc3c(N)nc(NCCc4ccc(CCC(=O)O)cc4)nc32)[C@H](O)[C@@H]1O [CGS-21680, reference compound]
ICAM-1 mRNA level in wound tissue (ICAM-1 mRNA): no effect | TNF-α mRNA level in wound tissue (TNF-α mRNA): remarkable suppression | TGF-β mRNA level in wound tissue (TGF-β mRNA): no effect

CC[C@@H](C(C)C)[C@H](O)[C@@H](O)[C@@H](C)[C@H]1CC[C@H]2[C@@H]3COC(=O)[C@H]4C[C@H](O)[C@H](O)C[C@]4(C)[C@H]3CC[C@]12C [Compound 1, (22S, 23S, 24S)-2α, 3 α, 22,23-tetrahydroxy-24 ethyl-^2-homo-7-oxo-5α-cholestane-6-one]
Cytotoxicity (in words) (HOS cancer cell line): no cytotoxicity | Effect on LPS-stimulated inflammation (macrophage cell culture): no pro- or anti-inflammatory effect | Cytotoxicity (in words) (3T3 mouse fibroblasts [2]; at or up to 30 μM, the highest concentration tested): no cytotoxicity | IC50 (3T3 mouse fibroblasts [2]): > 30 µM | Proliferation of primary keratinocytes ([3]; 3 μM): did not reach significance | Proliferation of primary keratinocytes ([3]; doses of 0.3 and 10 μM): significant increase | ICAM-1 mRNA level in wound tissue (ICAM-1 mRNA): significant suppression | TNF-α mRNA level in wound tissue (TNF-α mRNA): nearly complete downregulation | Cytotoxicity (in words) (A549 cancer cell line): no cytotoxicity | Scratch wound closure at 5 μM, % (3T3 mouse fibroblasts [4]): 30 ± 4.2 % | Scratch wound closure at 5 μM, % (3T3 mouse fibroblasts [4]; listed as HB): 30 ± 4.2% | IC50 (RPMI 8226 cancer cells): ~30 µM | Cutaneous wound healing ([5]; 10 μg topical per mouse per day for 10 d, versus vehicle): significantly improved | Increase in speed of wound closure relative to control mice ([5]; d 4, percent of original wound size, 10 μg/mouse topical): 2 fold | IC50 [1]: ~30 µM | Cytotoxicity (in words) (HeLa cancer cell line): no cytotoxicity | Body weight loss associated with injury [6]: tendency for HB to reduce weight loss | Anabolic response (healthy rats): selective anabolic response | Akt-1 phosphorylation in edge-of-the-wound tissue (phospho-Akt1(Ser473)): upregulation | Cell proliferation at 5 μM, % of control (3T3 mouse fibroblasts [7]): 37.7 ± 3.4 % of control | Cytotoxicity (in words) (K562 cancer cell line): no cytotoxicity | TGF-β mRNA level in wound tissue (TGF-β mRNA): weak effect

CC[C@@H](C(C)C)[C@H](O)[C@@H](O)[C@@H](C)[C@H]1CC[C@H]2[C@@H]3CC(=O)[C@H]4C[C@H](O)[C@H](O)C[C@]4(C)[C@H]3CC[C@]12C [Compound 2, (22S, 23S, 24S)-2α, 3α, 22, 23-tetrahydroxy-24-ethyl-5α-cholestan-6-one]
IC50 at 4 h [8]: > 30 µM | Scratch wound closure at 5 μM, % (3T3 mouse fibroblasts [4]): 32.9 ± 4.1 % | Cytotoxicity (in words) (human cancer cell lines): weak to no cytotoxicity

CC[C@H](C(C)C)[C@H](O)[C@@H](O)[C@@H](C)[C@H]1CC[C@H]2[C@@H]3COC(=O)[C@H]4C[C@H](F)CC[C@]4(C)[C@H]3CC[C@]12C [Compound 3, (22S,23S,24R)-3α-fluoro-22,23-dihydroxy-24-ethyl-^2-homo-7-oxa-5 α-cholestan-6-one]
IC50 (3T3 mouse fibroblasts [2]): ~30 µM | Scratch wound closure at 5 μM, % (3T3 mouse fibroblasts [4]): 15.3 ± 2.6%

CC[C@@H](C(C)C)[C@H](O)[C@@H](O)[C@@H](C)[C@H]1CC[C@H]2[C@@H]3CC(=O)[C@H]4C[C@H](F)CC[C@]4(C)[C@H]3CC[C@]12C [Compound 4, (22S,23S,24S)-3α-fluoro-22,23-dihydroxy-24-ethyl-5 α-cholestan-6-one]
IC50 at 4 h [8]: ~30 µM | Proliferation of primary keratinocytes, dose dependence [3]: dose-dependently decreased | Scratch wound closure at 5 μM, % (3T3 mouse fibroblasts [4]): 27.7 ± 4.0 % | Fibroblast migration / scratch wound closure activity (in words) (3T3 mouse fibroblasts [4]): high activity similar to HB

CC[C@@H](C(C)C)[C@H](O)[C@@H](O)[C@@H](C)[C@H]1CC[C@H]2[C@@H]3CNC(=O)[C@H]4C[C@H](O)[C@H](O)C[C@]4(C)[C@H]3CC[C@]12C [Compound 5, (22S,23S,24S)-2α,3α,22,23-tetrahydroxy-24-ethyl-^2-homo-7-aza-5α-cholestan-6-one]
IC50 (3T3 mouse fibroblasts [2]): 12.5 µM | Scratch wound closure at 5 μM, % (3T3 mouse fibroblasts [4]): 13.0 ± 0.7% | Fibroblast migration / scratch wound closure activity (in words) (3T3 mouse fibroblasts [4]): no effect

CC[C@@H](C(C)C)[C@H](O)[C@@H](O)[C@@H](C)[C@H]1CC[C@H]2[C@@H]3CC(=O)N[C@H]4C[C@H](O)[C@H](O)C[C@]4(C)[C@H]3CC[C@]12C [Compound 6, (22S,23S,24S)-2α,3α,22,23-tetrahydroxy-24-ethyl-^2-homo-6-aza-5α-cholestan-7-one]
IC50 (3T3 mouse fibroblasts [2]): > 30 µM | Proliferation of primary keratinocytes, dose dependence [3]: dose-dependently decreased | Scratch wound closure at 5 μM, % (3T3 mouse fibroblasts [4]): 30.5 ± 4.2 % | Fibroblast migration / scratch wound closure activity (in words) (3T3 mouse fibroblasts [4]): highest activity at 3 μM

CC(C)[C@H](C)[C@H](O)[C@@H](O)[C@@H](C)[C@H]1CC[C@H]2[C@@H]3COC(=O)[C@H]4C[C@@H](O)[C@H](O)C[C@]4(C)[C@H]3CC[C@]12C [Compound 8, (22S,23S,24R)-2α,3α,22,23-tetrahydroxy-24-methyl-^2-homo-7-oxa-5α-cholestan-6-one]
IC50 (3T3 mouse fibroblasts [2]): > 30 µM | Scratch wound closure at 5 μM, % (3T3 mouse fibroblasts [4]): 13.2 ± 1.5% | Cell proliferation at 5 μM, % of control (3T3 mouse fibroblasts [7]): 31.9 ± 5.3 % of control

CC(C)[C@@H](C)[C@@H](O)[C@H](O)[C@@H](C)[C@H]1CC[C@H]2[C@@H]3COC(=O)[C@H]4C[C@H](O)[C@H](O)C[C@]4(C)[C@H]3CC[C@]12C [Compound 9, (22R,23R,24R)-2α,3α,22,23-tetrahydroxy-24-methyl-^2-homo-7-oxa-5α-cholestan-6-one]
IC50 (3T3 mouse fibroblasts [2]): > 30 µM | Scratch wound closure at 5 μM, % (3T3 mouse fibroblasts [4]): 8.1 ± 1.6% | Cell proliferation at 5 μM, % of control (3T3 mouse fibroblasts [7]): 31.0 ± 2.6 % of control

PDGF
Scratch wound closure, % (3T3 mouse fibroblasts [9]): 64.8 ± 1.7 %
